Data: paper PMC12040169 (PLOS Biology, 2025)

Assay: in vitro
Conditions: human, hela cells, % viability

| Structure (SMILES) | viability at 28.5 h, 10 µM [%] |
| --- | --- |
| Clc1ccc(-c2cc(CN3CCCCC3)no2)cc1Cl [CBK018435] | 102 |
| O=C(c1ccc(F)cc1)N1CCC(c2cc3cccnc3[nH]2)CC1 [CBK285001] | 96.8 |
| COc1ccc2c(ccn2S(=O)(=O)c2ccc(N3CCNCC3)c(C(F)(F)F)c2)c1 [CBK034033C] | 89.3 |
| CC1CCCCN1C(=O)CCn1c(-c2cccnc2)cc2cccnc21 (stereo not shown) [CBK282692] | 97.1 |
| CC(C)(CN)CN(Cc1cccc2ccccc12)C(=O)NC1C[C@H]1c1ccccc1 (stereo partly shown) [CBK000490C] | 94.7 |
| CS(=O)(=O)Nc1nccnc1OC1CCN(CC2CCCCC2)CC1 [CBK084284] | 89.9 |
| NC(=O)CN1CC2(CCN(Cc3cccc(C(F)(F)F)c3)CC2)c2ccccc21 [CBK126776] | 93.1 |
| Cc1cc(O)nc2sc(C(=O)c3ccccc3)c(N)c12 [CBK115334] | 87.9 |
| NS(=O)(=O)c1ccc(NC(=S)NNC(=O)C2c3ccccc3Oc3ccccc32)cc1 [CBK267024] | 99.2 |
| COc1ccc(CCNC(=O)N2CCCC(CO)C2)cc1 (stereo not shown) [CBK156059] | 87.1 |
| CN1CCC(N(C)C(=O)NCc2cccc3ccccc23)C1 (stereo not shown) [CBK155999] | 89.2 |
| O=P(O)(CN1CCCCC1)C1CCCCC1O (stereo not shown) [CBK262325] | 87.1 |
| OC(COCc1ccc2c(c1)OCO2)CN1CCN(C(c2ccccc2)c2ccccc2)CC1 (stereo not shown) [CBK074850C] | 83.2 |
| Cc1n[nH]c(O)c1C(c1ccc(OC(=O)c2c(F)cccc2F)cc1)c1c(C)n[nH]c1O [CBK265136] | 101 |
| CCN(Cc1cncn1C)C(CC1CCCCC1)c1ccccc1 (stereo not shown) [CBK066815T] | 122 |
| COc1cc(/C=N/NC(=O)CSc2n[nH]c(=O)[nH]c2=O)cc(OC)c1O [CBK263527] | 92.9 |
| CCN(CC)c1ccc(C(=O)Cn2c(=O)n(S(=O)(=O)c3ccc4ccccc4c3)c3ccccc32)cc1 [CBK106505] | 88.9 |
| O=S(=O)(Nc1ccc(-c2nnn[nH]2)cc1)c1cc(Cl)c(Cl)s1 [CBK154745] | 116 |
| CC1(C)Cc2nc3sc4c(=O)n(CC(=O)NCCc5ccccc5)cnc4c3cc2CS1 [CBK269180] | 97.8 |
| N#CCCN(Cc1ccccc1)C(=O)c1ccccc1[N+](=O)[O-] [CBK264434] | 92.6 |
| CCCCOc1nccnc1-c1ccc(C)c(C)c1 [CBK106870] | 95.1 |
| O=C1COc2ccc(S(=O)(=O)NCCOc3ccccc3)cc2N1 [CBK268480] | 95.9 |

| Structure (SMILES) | viability at 28.5 h, 10 µM [%] |
| --- | --- |
| Cc1ccc(C)c2[nH]c(=O)c(CN(Cc3cccnc3)C(=O)NC3CCCCC3)cc12 [CBK068091] | 98.2 |
| COc1ccc2c3c1CCC(C)(C)C3COC2CCN1CCN(c2ccc(F)cc2)CC1 (stereo not shown) [CBK024047C] | 86.7 |
| COc1ccc(OC)c(NS(=O)(=O)N(C)C)c1 [CBK005362] | 94.1 |
| Cc1c(C(=O)N2CCC(c3c(C(=O)NC(C)C)sc4ccccc34)C2)[nH]c2ccccc12 (stereo not shown) [CBK285872] | 84.8 |
| COc1ccc(-c2cc(C(=O)NCc3ccc(F)cc3)cnc2-c2cccc(C)c2)cc1 [CBK036702] | 98.8 |
| CCOC(=O)Nc1ccc(S(=O)(=O)Nn2cnnc2)cc1 [CBK262138] | 105 |
| Cc1cc(CN2CCN(S(=O)(=O)c3ccc(C(=O)c4ccccc4)cc3)CC2)cc(C)c1O [CBK062933] | 90.4 |
| O=C(CN1CCOCC1)Nc1sc2c(c1C(=O)Nc1ccc(Br)cc1)CCC2 [CBK265073] | 111 |
| Cc1ncsc1CCOc1cccc(C(F)(F)F)n1 [CBK115794] | 117 |
| O=C(CSc1n[nH]c(=O)n1C1CCCCC1)NCc1ccc(N2CCCC2=O)cc1 [CBK299785] | 105 |
| CC(C)[C@@H](CO)Nc1nccnc1-c1cccs1 [CBK089024] | 93.7 |
| CC(=O)Nc1ccc(-c2nc3ncccc3o2)cc1C [CBK288132] | 91.1 |
| COC(=O)c1c(NC(=O)CCCC(=O)O)sc(C)c1C [CBK265382] | 98.2 |
| COCCCOc1nc2ccccc2nc1NC(C)C [CBK115737] | 99.3 |
| CC(Cc1ccccn1)N(C)C(=O)c1cnn(-c2ccc(F)cc2)c1 (stereo not shown) [CBK283316] | 99.6 |
| O=C(CC1CCCO1)N1CCn2c(nnc2-c2cncc(Br)c2)C1 (stereo not shown) [CBK304762] | 91.4 |
| Cc1cc(COc2nccnc2N2CCN(CCCn3c(=O)[nH]c4ccccc43)CC2)no1 [CBK084199] | 107 |
| CC(C)(O)C#Cc1ccc(C(=O)NCCc2ccc(S(N)(=O)=O)cc2)cc1 [CBK263110] | 98.2 |
| COC(=O)[C@H]1CN(C(=O)C2CC(=O)N(C)C2)C[C@@H]1c1ccc(F)cc1 (stereo partly shown) [CBK283521] | 93 |
| CCCC(=O)Nc1ccc(C(=O)N2CCN(CC)CC2)cc1 [CBK304218] | 88.6 |
| CCOc1ccc2[nH]c(C(=O)NC3CCCN(C)C3)c(C)c2c1 (stereo not shown) [CBK282530] | 109 |
| COc1ccc(C)cc1NS(=O)(=O)c1cc(I)c2occc2c1 [CBK078531] | 72.6 |

| Structure (SMILES) | viability at 28.5 h, 10 µM [%] |
| --- | --- |
| CCC(=O)c1c(-c2ccccc2)nc2n(C)c3ccccc3n12 [CBK262488] | 69.9 |
| O=C(Nc1ccccc1Cl)c1ccc(NCCN2C(=O)c3ccccc3C2=O)c([N+](=O)[O-])c1 [CBK267149] | 95.8 |
| O=C1NCC2(CCCN(Cc3ccccc3F)C2)Oc2ccccc21 (stereo not shown) [CBK284901] | 95 |
| Cc1oc(CC(C)C)c(CN2CCCCC2)c1C(=O)O [CBK265448C] | 113 |
| CCCNc1nccnc1-c1cccc(CO)c1 [CBK088897] | 91.5 |
| COc1ccc(C(=O)NCCCc2nc3ccccc3[nH]2)cc1OC [CBK270018] | 101 |
| C=CCNC1OC(CO)C(O)C(O)C1O (stereo not shown) [CBK261357] | 88.9 |
| CC1c2ccsc2CCN1C(=O)CC(NC(N)=O)c1cccc(Br)c1 (stereo not shown) [CBK305635] | 110 |
| COC(=O)Cn1c(CN2CCN(c3cccc(Cl)c3)CC2)nc2c1c(=O)n(C)c(=O)n2C [CBK269598] | 86.7 |
| O=S(=O)(NCc1ccc(F)cc1Cl)c1ccc(Cl)c(Cl)c1 [CBK043785] | 91 |
| COc1ccc(N2CCN(CC(O)COc3ccc4c(C)cc(=O)oc4c3)CC2)cc1 (stereo not shown) [CBK269847] | 86.5 |
| COc1ccc(-c2cc(C(=O)NCCc3ccc(N)cc3)cnc2-c2ccc(Cl)cc2)cc1 [CBK037561] | 91.6 |
| Cc1ccccc1C(=O)NC(NCC1CCCO1)C(Cl)(Cl)Cl (stereo not shown) [CBK262273] | 91.9 |
| COC(=O)c1ccc(-c2cnc(OCC3CCN(C(=O)OC(C)(C)C)CC3)nc2)nc1 [CBK170130] | 101 |
| CCNC(=O)Nc1ccc2ccc(-c3ccc(SC)cc3)nc2n1 [CBK070656] | 90.9 |
| CCN1CCN(c2c(Cl)cccc2NC(=O)CSc2ccc(Cl)cc2)CC1 [CBK267606] | 90.7 |
| Cc1ccc(C2=CCN(C(=O)c3cccc(S(=O)(=O)N(C)C)c3)CC2)cc1 [CBK298273] | 90.9 |
| CCCC(N)CCCCCC(=O)O (stereo not shown) [CBK217078] | 91.8 |
| O=C(O)c1cccc(NS(=O)(=O)Cc2ccccc2[N+](=O)[O-])c1 [CBK038906] | 97.8 |
| c1ccc(-c2cccc(-c3cc(Nc4ccc(N5CCOCC5)cc4)ncn3)c2)cc1 [CBK090930] | 90.2 |
| COc1c(C)cnc(COC(=O)N2C[C@@H](C)O[C@@H](C)C2)c1C [CBK200143] | 96.2 |
| OC(COc1ccccc1)CN1CCN(Cc2ccccc2)CC1 (stereo not shown) [CBK074852C] | 93 |

| Structure (SMILES) | viability at 28.5 h, 10 µM [%] |
| --- | --- |
| Cc1nccn1CCCn1cncc1-c1cnn(C2CCCCC2)c1 [CBK281816] | 105 |
| COc1ccc([C@H]2CN(C(=O)c3ccccc3)[C@@H]3CCN(Cc4ccccc4)C[C@H]23)cc1 [CBK285592] | 98.5 |
| NC(=O)CN1CCN(c2nccnc2Oc2ccc(F)cc2)CC1 [CBK083018T] | 98.3 |
| CCc1cc(CNC(=O)C(c2ccccc2)N2CCC(C)CC2)on1 (stereo not shown) [CBK281592] | 92.4 |
| CCCNc1nc(-c2cccc(O)c2)cn2ccnc12 [CBK066395] | 93.5 |
| COc1ccc2nc(Nc3nc4ccc(S(C)(=O)=O)cc4s3)sc2c1 [CBK287484] | 102 |
| Cn1c2c(ccc1=O)CCCCC2 [CBK005987] | 92 |
| Cc1ccc2nc(N(CCCN(C)C)C(=O)c3ccco3)sc2c1 [CBK287639] | 114 |
| O=C(c1sc2ccccc2c1Cl)N1CCN(CCN2C(=O)c3cccc4cccc(c34)C2=O)CC1 [CBK262557] | 99 |
| O=c1[nH]c(=O)c2cc(S(=O)(=O)N3CCc4[nH]c5ccccc5c4C3)ccc2[nH]1 [CBK285949] | 96.7 |
| CC(=O)N(C)Cc1cccc(Nc2ncnc3c2cnn3CCO)c1 [CBK305979] | 96.1 |
| N#Cc1ccc(CNC(=O)c2ccc(-c3ccc(OC(F)(F)F)cc3)nc2)cc1 [CBK156249] | 87.2 |
| O=C(c1cscn1)N1CCN(c2ncccn2)CC1 [CBK144506] | 87.9 |
| O=C1c2ccccc2CN1c1ccc(OC(F)(F)F)cc1 [CBK113237] | 91.3 |
| COc1cccc(CC(=O)N2CCC(Cc3cccc(-c4cccs4)c3)(C(N)=O)CC2)c1 [CBK285738] | 96.4 |
| CNC(=O)c1ccc(NC(=O)N2CCCCC2c2ccnn2C)cc1 (stereo not shown) [CBK305521] | 112 |
| O=C(NCc1ccc(Cl)cc1)c1c(O)c2cc(NS(=O)(=O)c3ccccc3)ccc2[nH]c1=O [CBK017589] | 94.4 |
| OCCN1CCN(c2nc(C3CCOC3)cn3ccnc23)CC1 (stereo not shown) [CBK037931] | 98.5 |
| COc1ccc(NC(=O)N[C@H]2[C@H](O)[C@@H](N3CCOCC3)[C@@H]3OC[C@H]2O3)cc1 [CBK288820] | 101 |
| Cc1nn(CC(=O)N2CCN(C)CC2)c(=O)c2ccccc12 [CBK304221] | 93.3 |
| COc1cccc(C(NC(=O)C2COc3ccc(OC)cc3C2)c2ccccc2)c1 (stereo not shown) [CBK285713] | 97.7 |
| COCc1nnc(Sc2nc3ccccc3nc2NC(C)C)s1 [CBK115253] | 96.5 |
